Measured values published in the NIST ThermoML archive (doi:10.1021/je3011979).
Numbers after ± are expanded uncertainties.

What was measured:
[1] = xn = mol fraction of the nth substance listed; conditions: 101 kPa, Liquid, Vibrating tube method
[2] = excess molar enthalpy (molar enthalpy of mixing); xn = mol fraction of the nth substance listed; conditions: 101 kPa, Liquid, Calvet calorimetry

CCCOC(C)=O [propyl ethanoate] + CCCCCC
Conditions	excess molar enthalpy [kJ/mol]	mass density [kg/m3]
[1], 291.15 K, x1 = 0.012	–	663.4 ± 0.3
[1], 291.15 K, x1 = 0.0372	–	668 ± 0.3
[1], 291.15 K, x1 = 0.0924	–	678.5 ± 0.3
[1], 291.15 K, x1 = 0.1648	–	692.7 ± 0.3
[1], 291.15 K, x1 = 0.2357	–	707 ± 0.3
[1], 291.15 K, x1 = 0.3085	–	722.2 ± 0.3
[1], 291.15 K, x1 = 0.3804	–	737.7 ± 0.3
[1], 291.15 K, x1 = 0.442	–	751.4 ± 0.3
[1], 291.15 K, x1 = 0.5117	–	767.2 ± 0.3
[1], 291.15 K, x1 = 0.5781	–	782.6 ± 0.3
[1], 291.15 K, x1 = 0.64	–	797.3 ± 0.3
[1], 291.15 K, x1 = 0.702	–	812.3 ± 0.3
[1], 291.15 K, x1 = 0.7697	–	829.1 ± 0.4
[1], 291.15 K, x1 = 0.8208	–	842.2 ± 0.4
[1], 291.15 K, x1 = 0.8835	–	858.4 ± 0.4
[1], 291.15 K, x1 = 0.9247	–	869.3 ± 0.4
[1], 291.15 K, x1 = 1	–	889.6 ± 0.2
[1], 298.15 K, x1 = 0.0175	–	658 ± 0.3
[1], 298.15 K, x1 = 0.035	–	661.2 ± 0.3
[1], 298.15 K, x1 = 0.0831	–	670.3 ± 0.3
[1], 298.15 K, x1 = 0.1535	–	683.9 ± 0.3
[1], 298.15 K, x1 = 0.2218	–	697.6 ± 0.3
[1], 298.15 K, x1 = 0.2836	–	710.3 ± 0.3
[1], 298.15 K, x1 = 0.3539	–	724.9 ± 0.3
[1], 298.15 K, x1 = 0.4197	–	739.4 ± 0.3
[1], 298.15 K, x1 = 0.4795	–	752.7 ± 0.3
[1], 298.15 K, x1 = 0.5417	–	766.9 ± 0.3
[1], 298.15 K, x1 = 0.604	–	781.5 ± 0.3
[1], 298.15 K, x1 = 0.6583	–	794.5 ± 0.3
[1], 298.15 K, x1 = 0.7242	–	810.6 ± 0.3
[1], 298.15 K, x1 = 0.7772	–	823.9 ± 0.4
[1], 298.15 K, x1 = 0.8357	–	838.9 ± 0.4
[1], 298.15 K, x1 = 0.8934	–	853.9 ± 0.4
[1], 298.15 K, x1 = 0.9187	–	860.5 ± 0.4
[1], 298.15 K, x1 = 0.9749	–	875.7 ± 0.4
[1], 298.15 K, x1 = 1	–	882.5 ± 0.2
[1], 318.15 K, x1 = 0.0304	–	641.7 ± 0.3
[1], 318.15 K, x1 = 0.0796	–	650.7 ± 0.3
[1], 318.15 K, x1 = 0.1381	–	661.7 ± 0.3
[1], 318.15 K, x1 = 0.2079	–	675.3 ± 0.3
[1], 318.15 K, x1 = 0.2642	–	686.6 ± 0.3
[1], 318.15 K, x1 = 0.3318	–	700.5 ± 0.3
[1], 318.15 K, x1 = 0.3997	–	714.9 ± 0.3
[1], 318.15 K, x1 = 0.4505	–	725.9 ± 0.3
[1], 318.15 K, x1 = 0.5124	–	739.7 ± 0.3
[1], 318.15 K, x1 = 0.5708	–	752.9 ± 0.3
[1], 318.15 K, x1 = 0.622	–	764.8 ± 0.3
[1], 318.15 K, x1 = 0.6815	–	778.9 ± 0.3
[1], 318.15 K, x1 = 0.7426	–	793.7 ± 0.3
[1], 318.15 K, x1 = 0.7992	–	807.7 ± 0.4
[1], 318.15 K, x1 = 0.8648	–	824.4 ± 0.4
[1], 318.15 K, x1 = 0.9227	–	839.3 ± 0.4
[1], 318.15 K, x1 = 1	–	859.8 ± 0.2
[1], 328.15 K, x1 = 0.0253	–	631.3 ± 0.3
[1], 328.15 K, x1 = 0.0749	–	640.2 ± 0.3
[1], 328.15 K, x1 = 0.1369	–	651.6 ± 0.3
[1], 328.15 K, x1 = 0.2052	–	664.7 ± 0.3
[1], 328.15 K, x1 = 0.2719	–	677.8 ± 0.3
[1], 328.15 K, x1 = 0.3322	–	690.1 ± 0.3
[1], 328.15 K, x1 = 0.3986	–	704 ± 0.3
[1], 328.15 K, x1 = 0.4614	–	717.6 ± 0.3
[1], 328.15 K, x1 = 0.5209	–	730.7 ± 0.3
[1], 328.15 K, x1 = 0.5809	–	744.3 ± 0.3
[1], 328.15 K, x1 = 0.62	–	753.3 ± 0.3
[1], 328.15 K, x1 = 0.6944	–	770.8 ± 0.3
[1], 328.15 K, x1 = 0.7605	–	786.8 ± 0.3
[1], 328.15 K, x1 = 0.8114	–	799.4 ± 0.4
[1], 328.15 K, x1 = 0.8707	–	814.4 ± 0.4
[1], 328.15 K, x1 = 0.9235	–	828 ± 0.4
[1], 328.15 K, x1 = 1	–	848.3 ± 0.2
[2], 291.15 K, x1 = 0.074	0.275 ± 0.006	–
[2], 291.15 K, x1 = 0.1514	0.544 ± 0.007	–
[2], 291.15 K, x1 = 0.2307	0.751 ± 0.008	–
[2], 291.15 K, x1 = 0.3056	0.922 ± 0.009	–
[2], 291.15 K, x1 = 0.3758	1.038 ± 0.009	–
[2], 291.15 K, x1 = 0.4417	1.087 ± 0.009	–
[2], 291.15 K, x1 = 0.4984	1.109 ± 0.009	–
[2], 291.15 K, x1 = 0.5492	1.09 ± 0.009	–
[2], 291.15 K, x1 = 0.5528	1.087 ± 0.009	–
[2], 291.15 K, x1 = 0.6101	1.029 ± 0.009	–
[2], 291.15 K, x1 = 0.6705	0.952 ± 0.009	–
[2], 291.15 K, x1 = 0.7361	0.817 ± 0.008	–
[2], 291.15 K, x1 = 0.8064	0.655 ± 0.007	–
[2], 291.15 K, x1 = 0.8762	0.464 ± 0.006	–
[2], 291.15 K, x1 = 0.9422	0.246 ± 0.006	–
[2], 298.15 K, x1 = 0.0319	0.103 ± 0.006	–
[2], 298.15 K, x1 = 0.0736	0.271 ± 0.006	–
[2], 298.15 K, x1 = 0.145	0.529 ± 0.007	–
[2], 298.15 K, x1 = 0.2223	0.743 ± 0.008	–
[2], 298.15 K, x1 = 0.3011	0.931 ± 0.009	–
[2], 298.15 K, x1 = 0.366	1.038 ± 0.009	–
[2], 298.15 K, x1 = 0.4223	1.104 ± 0.009	–
[2], 298.15 K, x1 = 0.503	1.122 ± 0.01	–
[2], 298.15 K, x1 = 0.559	1.094 ± 0.009	–
[2], 298.15 K, x1 = 0.6073	1.044 ± 0.009	–
[2], 298.15 K, x1 = 0.6518	0.979 ± 0.009	–
[2], 298.15 K, x1 = 0.7091	0.874 ± 0.008	–
[2], 298.15 K, x1 = 0.7653	0.741 ± 0.008	–
[2], 298.15 K, x1 = 0.8334	0.569 ± 0.007	–
[2], 298.15 K, x1 = 0.8989	0.376 ± 0.006	–
[2], 298.15 K, x1 = 0.9494	0.195 ± 0.006	–
[2], 318.15 K, x1 = 0.0748	0.289 ± 0.006	–
[2], 318.15 K, x1 = 0.1298	0.511 ± 0.007	–
[2], 318.15 K, x1 = 0.2004	0.736 ± 0.008	–
[2], 318.15 K, x1 = 0.2777	0.941 ± 0.009	–
[2], 318.15 K, x1 = 0.3479	1.058 ± 0.009	–
[2], 318.15 K, x1 = 0.4119	1.119 ± 0.01	–
[2], 318.15 K, x1 = 0.4746	1.146 ± 0.01	–
[2], 318.15 K, x1 = 0.5084	1.142 ± 0.01	–
[2], 318.15 K, x1 = 0.5582	1.127 ± 0.01	–
[2], 318.15 K, x1 = 0.6039	1.08 ± 0.009	–
[2], 318.15 K, x1 = 0.6543	1.012 ± 0.009	–
[2], 318.15 K, x1 = 0.7123	0.914 ± 0.008	–
[2], 318.15 K, x1 = 0.7753	0.774 ± 0.008	–
[2], 318.15 K, x1 = 0.8288	0.613 ± 0.007	–
[2], 318.15 K, x1 = 0.8906	0.417 ± 0.006	–
[2], 318.15 K, x1 = 0.9452	0.224 ± 0.006	–
